# From BindingDB's records for doi:10.1021/jm051146h (Conforma Therapeutics, 2006)
# Molecular target: Heat shock protein HSP 90-beta (Homo sapiens, UniProt P08238)
# Test: Her-2 Degradation Assay
# Conditions: not given
# Experimental: A fluorescence histogram was generated, and the mean fluorescence intensity (MFI) of each sample was determined using Cellquest software.
# Chain of Heat shock protein HSP 90-beta (P08238 whole entry): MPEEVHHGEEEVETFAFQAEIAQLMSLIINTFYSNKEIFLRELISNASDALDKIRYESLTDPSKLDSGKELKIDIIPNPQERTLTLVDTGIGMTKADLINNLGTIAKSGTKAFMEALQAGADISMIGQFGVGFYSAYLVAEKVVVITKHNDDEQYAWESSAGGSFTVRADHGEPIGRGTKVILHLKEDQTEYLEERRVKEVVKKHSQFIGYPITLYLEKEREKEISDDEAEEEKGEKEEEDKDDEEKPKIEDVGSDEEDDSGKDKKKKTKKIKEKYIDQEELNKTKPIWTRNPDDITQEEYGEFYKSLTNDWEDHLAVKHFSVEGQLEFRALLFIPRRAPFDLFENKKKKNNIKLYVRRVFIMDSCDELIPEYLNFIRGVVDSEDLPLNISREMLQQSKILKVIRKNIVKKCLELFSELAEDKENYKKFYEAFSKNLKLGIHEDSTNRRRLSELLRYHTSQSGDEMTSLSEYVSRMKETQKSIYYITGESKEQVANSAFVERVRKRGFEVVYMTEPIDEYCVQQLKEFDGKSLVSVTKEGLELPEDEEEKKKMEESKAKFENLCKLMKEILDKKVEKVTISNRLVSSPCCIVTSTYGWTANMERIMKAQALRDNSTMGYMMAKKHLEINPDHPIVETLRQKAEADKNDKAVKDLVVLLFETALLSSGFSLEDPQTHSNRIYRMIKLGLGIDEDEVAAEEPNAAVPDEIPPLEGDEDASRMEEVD
row,Compound,EC50
1,"CCCCn1c(Sc2nc3cncc(Br)c3s2)nc2c(N)ncnc21 [8-({7-bromopyrido[3,4-d][1,3]thiazol-2-yl}sulfanyl)-9-butyl-9H-purin-6-amine]",0.4 µM
2,"CCCCn1c(Sc2nc3cncc(Cl)c3s2)nc2c(N)ncnc21 [9-butyl-8-({7-chloropyrido[3,4-d][1,3]thiazol-2-yl}sulfanyl)-9H-purin-6-amine]",0.28 µM
3,"CC(C)(C)NCCn1c(Sc2nc3cccc(Cl)c3s2)nc2c(N)ncnc21 [9-[2-(tert-butylamino)ethyl]-8-[(7-chloro-1,3-benzothiazol-2-yl)sulfanyl]-9H-purin-6-amine]",0.14 µM
4,CC(C)(C)CNCCn1c(Sc2nc3cccc(Cl)c3s2)nc2c(N)ncnc21,0.035 µM
5,"CC(=O)OCCCn1c(Sc2nc3cncc(Cl)c3s2)nc2c(N)ncnc21 [3-[6-amino-8-({7-chloropyrido[3,4-d][1,3]thiazol-2-yl}sulfanyl)-9H-purin-9-yl]propyl acetate]",0.17 µM
6,"CC(C)(C)NCCCn1c(Sc2nc3cccc(Cl)c3s2)nc2c(N)ncnc21 [9-[3-(tert-butylamino)propyl]-8-[(7-chloro-1,3-benzothiazol-2-yl)sulfanyl]-9H-purin-6-amine]",0.15 µM
7,"Nc1ncnc2c1nc(Sc1nc3cccc(Cl)c3s1)n2CCNC1CC1 [8-[(7-chloro-1,3-benzothiazol-2-yl)sulfanyl]-9-[2-(cyclopropylamino)ethyl]-9H-purin-6-amine]",0.11 µM
8,"CC(C)NCCCn1c(Sc2nc3cccc(Cl)c3s2)nc2c(N)ncnc21 [8-[(7-chloro-1,3-benzothiazol-2-yl)sulfanyl]-9-[3-(propan-2-ylamino)propyl]-9H-purin-6-amine]",0.17 µM

# Same assay, conditions: pH 7.2; 37 °C
row,Compound,EC50
1,"Nc1ncnc2c1nc(Sc1nc3cccc(Cl)c3s1)n2CCN1CCOCC1 [8-[(7-chloro-1,3-benzothiazol-2-yl)sulfanyl]-9-[2-(morpholin-4-yl)ethyl]-9H-purin-6-amine]",0.25 µM
2,"CC(=O)OCCCn1c(Sc2nc3cccc(Cl)c3s2)nc2c(N)ncnc21 [3-{6-amino-8-[(7-chloro-1,3-benzothiazol-2-yl)sulfanyl]-9H-purin-9-yl}propyl acetate]",0.09 µM
3,"CCCCCn1c(Sc2nc3cccc(Cl)c3s2)nc2c(N)ncnc21 [8-[(7-chloro-1,3-benzothiazol-2-yl)sulfanyl]-9-pentyl-9H-purin-6-amine]",0.7 µM
4,"CCCCn1c(Sc2nc3cccc(OCC)c3s2)nc2c(N)ncnc21 [9-butyl-8-[(7-ethoxy-1,3-benzothiazol-2-yl)sulfanyl]-9H-purin-6-amine]",100 µM
5,"Nc1ncnc2c1nc(Sc1nc3cccc(Cl)c3s1)n2CCCO [3-{6-amino-8-[(7-chloro-1,3-benzothiazol-2-yl)sulfanyl]-9H-purin-9-yl}propan-1-ol]",0.15 µM
6,"Nc1ncnc2c1nc(Sc1nc3cccc(Cl)c3s1)n2CCO [2-{6-amino-8-[(7-chloro-1,3-benzothiazol-2-yl)sulfanyl]-9H-purin-9-yl}ethan-1-ol]",0.3 µM
7,CCCCn1c(Sc2nc3cccc(Cl)c3s2)nc2c(N)ncnc21,0.18 µM
8,"CCCCn1c(Sc2nc3ccccc3s2)nc2c(N)ncnc21 [8-(1,3-benzothiazol-2-ylsulfanyl)-9-butyl-9H-purin-6-amine]",5 µM
9,"CCCCn1c(Sc2nc3ccc(Cl)cc3s2)nc2c(N)ncnc21 [9-butyl-8-[(6-chloro-1,3-benzothiazol-2-yl)sulfanyl]-9H-purin-6-amine]",7 µM
10,"CCCCn1c(Sc2nc3cccc(Br)c3s2)nc2c(N)ncnc21 [8-[(7-bromo-1,3-benzothiazol-2-yl)sulfanyl]-9-butyl-9H-purin-6-amine]",0.33 µM
11,"CCCCn1c(Sc2nc3cccc(C)c3s2)nc2c(N)ncnc21 [9-butyl-8-[(7-methyl-1,3-benzothiazol-2-yl)sulfanyl]-9H-purin-6-amine]",0.3 µM
12,"CC(=O)OCCn1c(Sc2nc3cccc(Cl)c3s2)nc2c(N)ncnc21 [2-{6-amino-8-[(7-chloro-1,3-benzothiazol-2-yl)sulfanyl]-9H-purin-9-yl}ethyl acetate]",0.15 µM
13,"CCCCn1c(Sc2nc3c(Cl)cccc3s2)nc2c(N)ncnc21 [9-butyl-8-[(4-chloro-1,3-benzothiazol-2-yl)sulfanyl]-9H-purin-6-amine]",15 µM
14,"CCCCn1c(Sc2nc3cccc(OC)c3s2)nc2c(N)ncnc21 [9-butyl-8-[(7-methoxy-1,3-benzothiazol-2-yl)sulfanyl]-9H-purin-6-amine]",0.19 µM
15,"N#CCCCCn1c(Sc2nc3cccc(Cl)c3s2)nc2c(N)ncnc21 [5-{6-amino-8-[(7-chloro-1,3-benzothiazol-2-yl)sulfanyl]-9H-purin-9-yl}pentanenitrile]",0.11 µM
16,"CCn1c(Sc2nc3cccc(Cl)c3s2)nc2c(N)ncnc21 [8-[(7-chloro-1,3-benzothiazol-2-yl)sulfanyl]-9-ethyl-9H-purin-6-amine]",0.2 µM
17,"CC(=O)OCCCCn1c(Sc2nc3cccc(Cl)c3s2)nc2c(N)ncnc21 [4-{6-amino-8-[(7-chloro-1,3-benzothiazol-2-yl)sulfanyl]-9H-purin-9-yl}butyl acetate]",0.13 µM
18,"CCCn1c(Sc2nc3cccc(Cl)c3s2)nc2c(N)ncnc21 [8-[(7-chloro-1,3-benzothiazol-2-yl)sulfanyl]-9-propyl-9H-purin-6-amine]",0.25 µM
19,"CCCCn1c(Sc2nc3cccc(F)c3s2)nc2c(N)ncnc21 [9-butyl-8-[(7-fluoro-1,3-benzothiazol-2-yl)sulfanyl]-9H-purin-6-amine]",0.2 µM
20,"Nc1ncnc2c1nc(Sc1nc3cccc(Cl)c3s1)n2CCCCO [4-{6-amino-8-[(7-chloro-1,3-benzothiazol-2-yl)sulfanyl]-9H-purin-9-yl}butan-1-ol]",0.15 µM
21,"CCCCn1c(Sc2nc3ccc(Cl)c(Cl)c3s2)nc2c(N)ncnc21 [9-butyl-8-[(6,7-dichloro-1,3-benzothiazol-2-yl)sulfanyl]-9H-purin-6-amine]",25 µM
